Consider 13 molecules from patent publication US12297194B2, “N2-phenylpyrimidine-2,4-diamine compounds, and preparation methods and methods of use thereof” (BRIDGE BIOTHERAPEUTICS, INC., priority 2021, dated 2025).

What all share (type): cell-based, murine
For test [1], the target named is Ba/F3 EGFR Wild-type (Homo sapiens, UniProt P00533). Put plainly: CellTiter-Glo cell viability, Ba/F3 EGFR wild-type cells. The settings on record: 72 hours, read-out: Ba/F3 EGFR mutant cell (IC50, nM) WT. The method, then: (§1) In order to evaluate an inhibitory ability on wild-type Ba/F3 EGFR and Ba/F3 EGFR mutations in Ba/F3 cell lines by the compounds of Formula 1, the experiment was carried out as described below.
Chain of Ba/F3 EGFR Wild-type (P00533 whole entry, stated change not applied): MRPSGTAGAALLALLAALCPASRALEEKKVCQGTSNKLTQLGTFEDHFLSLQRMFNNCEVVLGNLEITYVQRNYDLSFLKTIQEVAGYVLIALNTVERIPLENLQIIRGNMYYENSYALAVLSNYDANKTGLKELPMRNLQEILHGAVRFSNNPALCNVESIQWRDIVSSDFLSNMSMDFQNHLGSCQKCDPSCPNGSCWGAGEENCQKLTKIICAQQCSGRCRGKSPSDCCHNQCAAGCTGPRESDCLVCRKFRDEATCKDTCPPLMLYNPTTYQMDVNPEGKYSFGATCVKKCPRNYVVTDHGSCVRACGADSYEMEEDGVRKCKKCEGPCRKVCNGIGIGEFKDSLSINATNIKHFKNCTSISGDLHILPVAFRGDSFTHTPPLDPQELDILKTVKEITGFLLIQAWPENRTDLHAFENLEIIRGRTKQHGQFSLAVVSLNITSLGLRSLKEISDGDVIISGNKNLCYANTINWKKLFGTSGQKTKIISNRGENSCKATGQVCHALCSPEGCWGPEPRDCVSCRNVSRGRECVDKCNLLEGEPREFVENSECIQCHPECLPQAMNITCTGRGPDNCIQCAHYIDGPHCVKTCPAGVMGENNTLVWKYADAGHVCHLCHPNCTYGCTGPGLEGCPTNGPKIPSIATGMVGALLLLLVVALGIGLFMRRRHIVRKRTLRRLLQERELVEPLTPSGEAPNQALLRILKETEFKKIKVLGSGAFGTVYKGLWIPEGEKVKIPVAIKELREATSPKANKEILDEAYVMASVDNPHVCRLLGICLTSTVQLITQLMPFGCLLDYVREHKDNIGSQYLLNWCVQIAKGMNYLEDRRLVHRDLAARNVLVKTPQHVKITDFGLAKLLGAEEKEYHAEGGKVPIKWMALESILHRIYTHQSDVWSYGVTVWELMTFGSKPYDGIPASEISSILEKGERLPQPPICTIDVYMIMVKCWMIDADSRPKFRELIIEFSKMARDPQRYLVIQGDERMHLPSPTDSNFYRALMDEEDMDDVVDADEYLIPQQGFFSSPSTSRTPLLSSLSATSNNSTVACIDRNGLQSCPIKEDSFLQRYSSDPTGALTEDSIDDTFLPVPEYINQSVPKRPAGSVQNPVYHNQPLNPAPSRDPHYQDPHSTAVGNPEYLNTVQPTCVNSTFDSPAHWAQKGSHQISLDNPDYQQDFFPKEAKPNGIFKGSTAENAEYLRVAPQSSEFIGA
(§2) The measurement of activities on Ba/F3 cells harboring wild-type EGFR and EGFR mutants by the compounds of the present invention were determined utilizing the CELLTITER-GLO™ system from Promega, as follows. The CELLTITER-GLO™ assay is a method for measuring the ATP present in cells to determine the cell viability. Ba/F3 EGFR wild-type and Ba/F3 EGFR L858R/C797S (L/C), Ba/F3 EGFR L858R/T790M/C797S (L/T/C), Ba/F3 EGFR Del19/T790M (D/T), Ba/F3 EGFR Del19/C797S (D/C), Ba/F3 EGFR Del19/T790M/C797S (D/T/C) mutant cell lines were maintained in RPMI1640, containing […], 1% penicillin-streptomycin, […] puromycin. Cells were grown in a humidified incubator at 37° C. with […].
(§3) The analysis of an EGFR inhibitory activity by the compounds was carried out in accordance with the analysis reaction recipe below.
(§4) 2500 cells/90 μL were seeded in 96 well cell culture plate, and after 24 hours, treated with the compounds represented by Formula 1 in concentrations of 0, 0.3, 0.9, 2.7, 8.2, 24.7, 74.1, 222.2, 666.7, 2000 (nM). After the reaction of 72 hours, the plate was incubated for 30 minutes at ambient temperature, and then, was further treated with 100 μL of the CELLTITER-GLO™ reagent and was shaken for 10 minutes at ambient temperature. Finally, measurement of the luminescence values were obtained using the SPECTRAMAX™ iD3 (Molecular Devices), and the IC50 values of the compound were analyzed using the GraphPad Prism program (version 9.0.2, GraphPad Software, Inc.).
(In general: ATP-based viability assays read luminescence as a measure of living cells.)

For test [2], the target named is Ba/F3 EGFR L858R/C797S mutants (Homo sapiens, UniProt P00533, C797S/L858R, cells depend on it). Put plainly: CellTiter-Glo cell viability, Ba/F3 EGFR L858R/C797S cells. The note with it: 72 hours, read-out: Ba/F3 EGFR mutant cell (IC50, nM) L/C. The method, then: as §1, §2, §3, §4
Chain of Ba/F3 EGFR L858R/C797S mutants (P00533 whole entry C797S/L858R): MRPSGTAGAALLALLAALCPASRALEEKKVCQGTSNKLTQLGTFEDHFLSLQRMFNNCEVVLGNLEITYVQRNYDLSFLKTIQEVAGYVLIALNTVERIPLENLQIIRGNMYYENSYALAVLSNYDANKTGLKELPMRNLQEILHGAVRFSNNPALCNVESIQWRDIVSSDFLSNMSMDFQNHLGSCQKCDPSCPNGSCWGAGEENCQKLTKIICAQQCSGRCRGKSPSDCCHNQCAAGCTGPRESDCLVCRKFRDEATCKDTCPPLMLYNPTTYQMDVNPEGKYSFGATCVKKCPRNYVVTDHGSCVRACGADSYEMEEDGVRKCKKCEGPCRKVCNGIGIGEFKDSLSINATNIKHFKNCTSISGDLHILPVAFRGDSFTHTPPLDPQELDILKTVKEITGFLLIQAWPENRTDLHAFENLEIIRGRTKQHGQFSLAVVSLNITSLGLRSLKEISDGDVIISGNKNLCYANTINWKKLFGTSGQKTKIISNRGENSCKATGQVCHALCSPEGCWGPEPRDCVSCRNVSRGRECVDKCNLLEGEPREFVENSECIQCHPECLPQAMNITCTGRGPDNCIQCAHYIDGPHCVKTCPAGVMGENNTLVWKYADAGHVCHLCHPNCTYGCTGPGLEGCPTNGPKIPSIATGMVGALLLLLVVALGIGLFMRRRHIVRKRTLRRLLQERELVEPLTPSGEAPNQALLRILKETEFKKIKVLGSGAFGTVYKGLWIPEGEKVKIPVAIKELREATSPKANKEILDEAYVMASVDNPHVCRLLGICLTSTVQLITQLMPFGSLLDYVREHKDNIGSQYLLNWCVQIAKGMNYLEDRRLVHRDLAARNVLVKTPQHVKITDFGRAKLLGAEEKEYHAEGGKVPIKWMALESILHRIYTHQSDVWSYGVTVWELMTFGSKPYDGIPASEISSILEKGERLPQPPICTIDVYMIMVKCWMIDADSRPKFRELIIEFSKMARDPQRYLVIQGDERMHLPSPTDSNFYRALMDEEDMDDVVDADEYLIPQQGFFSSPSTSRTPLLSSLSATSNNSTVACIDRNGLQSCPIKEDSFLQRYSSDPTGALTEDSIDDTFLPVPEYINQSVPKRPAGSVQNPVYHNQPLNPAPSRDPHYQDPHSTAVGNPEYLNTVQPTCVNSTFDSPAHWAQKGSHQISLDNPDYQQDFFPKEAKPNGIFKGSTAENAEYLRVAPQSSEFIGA
Test [3] deals with Ba/F3 EGFR L858R/T790M/C797S mutants (Homo sapiens, UniProt P00533, T790M/C797S/L858R, cells depend on it). Put plainly: CellTiter-Glo cell viability, Ba/F3 EGFR L858R/T790M/C797S cells. The settings on record: 72 hours, read-out: Ba/F3 EGFR mutant cell (IC50, nM) L/T/C. The method, then:
as §1, §2, §3, §4

Test [4] concerns the target Ba/F3 EGFR Del19/T790M mutants (Homo sapiens, UniProt P00533, T790M, cells depend on it, form not given). In words: CellTiter-Glo cell viability, Ba/F3 EGFR Del19/T790M cells. The note with it: 72 hours, read-out: Ba/F3 EGFR mutant cell (IC50, nM) D/T. The method, then: as §1, §2, §3, §4
The target in test [5] is Ba/F3 EGFR Del19/C797S mutants (Homo sapiens, UniProt P00533, C797S, cells depend on it, form not given). Put plainly: CellTiter-Glo cell viability, Ba/F3 EGFR Del19/C797S cells. The settings on record: 72 hours, read-out: Ba/F3 EGFR mutant cell (IC50, nM) D/C. The method, then: as §1, §2, §3, §4
Chain of Ba/F3 EGFR Del19/C797S mutants (P00533 with tags, fused parts or gaps DEL746-750/C797S, form open): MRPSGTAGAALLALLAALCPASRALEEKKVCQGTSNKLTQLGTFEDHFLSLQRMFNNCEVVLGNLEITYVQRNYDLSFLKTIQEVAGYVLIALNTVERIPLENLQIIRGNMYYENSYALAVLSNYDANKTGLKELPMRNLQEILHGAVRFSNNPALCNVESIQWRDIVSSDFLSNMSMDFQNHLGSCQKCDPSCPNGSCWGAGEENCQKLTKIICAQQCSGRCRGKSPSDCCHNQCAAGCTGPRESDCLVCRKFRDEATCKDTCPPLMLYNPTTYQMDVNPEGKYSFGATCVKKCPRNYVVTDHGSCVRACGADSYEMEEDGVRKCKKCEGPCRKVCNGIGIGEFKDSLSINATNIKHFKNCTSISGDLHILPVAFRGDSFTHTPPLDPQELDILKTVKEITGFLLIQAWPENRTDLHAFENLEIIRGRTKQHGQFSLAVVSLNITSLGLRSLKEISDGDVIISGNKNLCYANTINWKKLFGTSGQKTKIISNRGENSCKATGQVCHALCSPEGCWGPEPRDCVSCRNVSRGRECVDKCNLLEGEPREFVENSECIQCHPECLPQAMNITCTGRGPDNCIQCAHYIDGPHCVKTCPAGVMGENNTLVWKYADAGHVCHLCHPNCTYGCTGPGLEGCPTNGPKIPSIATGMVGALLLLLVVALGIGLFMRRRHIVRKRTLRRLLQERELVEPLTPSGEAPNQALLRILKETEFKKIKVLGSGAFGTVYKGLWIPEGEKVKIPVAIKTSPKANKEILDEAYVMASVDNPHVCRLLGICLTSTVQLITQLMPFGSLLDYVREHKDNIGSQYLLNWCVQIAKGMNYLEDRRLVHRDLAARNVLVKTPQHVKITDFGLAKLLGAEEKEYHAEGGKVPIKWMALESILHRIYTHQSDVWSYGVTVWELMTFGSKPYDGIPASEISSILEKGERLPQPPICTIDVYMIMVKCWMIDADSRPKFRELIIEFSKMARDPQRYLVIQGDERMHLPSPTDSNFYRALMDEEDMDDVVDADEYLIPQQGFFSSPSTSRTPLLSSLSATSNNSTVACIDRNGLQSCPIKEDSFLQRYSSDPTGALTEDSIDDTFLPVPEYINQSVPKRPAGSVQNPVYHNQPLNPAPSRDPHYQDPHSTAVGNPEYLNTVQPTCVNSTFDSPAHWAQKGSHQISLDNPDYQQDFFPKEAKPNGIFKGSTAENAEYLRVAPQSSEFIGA
The target in test [6] is Ba/F3 EGFR Del19/T790M/C797S mutants (Homo sapiens, UniProt P00533, T790M/C797S, cells depend on it, form not given). In words: CellTiter-Glo cell viability, Ba/F3 EGFR Del19/T790M/C797S cells. The settings on record: 72 hours, read-out: Ba/F3 EGFR mutant cell (IC50, nM) D/T/C. The method, then: as §1, §2, §3, §4

The structures appear in SMILES notation.

Chain of Ba/F3 EGFR L858R/T790M/C797S mutants (P00533 whole entry T790M/C797S/L858R): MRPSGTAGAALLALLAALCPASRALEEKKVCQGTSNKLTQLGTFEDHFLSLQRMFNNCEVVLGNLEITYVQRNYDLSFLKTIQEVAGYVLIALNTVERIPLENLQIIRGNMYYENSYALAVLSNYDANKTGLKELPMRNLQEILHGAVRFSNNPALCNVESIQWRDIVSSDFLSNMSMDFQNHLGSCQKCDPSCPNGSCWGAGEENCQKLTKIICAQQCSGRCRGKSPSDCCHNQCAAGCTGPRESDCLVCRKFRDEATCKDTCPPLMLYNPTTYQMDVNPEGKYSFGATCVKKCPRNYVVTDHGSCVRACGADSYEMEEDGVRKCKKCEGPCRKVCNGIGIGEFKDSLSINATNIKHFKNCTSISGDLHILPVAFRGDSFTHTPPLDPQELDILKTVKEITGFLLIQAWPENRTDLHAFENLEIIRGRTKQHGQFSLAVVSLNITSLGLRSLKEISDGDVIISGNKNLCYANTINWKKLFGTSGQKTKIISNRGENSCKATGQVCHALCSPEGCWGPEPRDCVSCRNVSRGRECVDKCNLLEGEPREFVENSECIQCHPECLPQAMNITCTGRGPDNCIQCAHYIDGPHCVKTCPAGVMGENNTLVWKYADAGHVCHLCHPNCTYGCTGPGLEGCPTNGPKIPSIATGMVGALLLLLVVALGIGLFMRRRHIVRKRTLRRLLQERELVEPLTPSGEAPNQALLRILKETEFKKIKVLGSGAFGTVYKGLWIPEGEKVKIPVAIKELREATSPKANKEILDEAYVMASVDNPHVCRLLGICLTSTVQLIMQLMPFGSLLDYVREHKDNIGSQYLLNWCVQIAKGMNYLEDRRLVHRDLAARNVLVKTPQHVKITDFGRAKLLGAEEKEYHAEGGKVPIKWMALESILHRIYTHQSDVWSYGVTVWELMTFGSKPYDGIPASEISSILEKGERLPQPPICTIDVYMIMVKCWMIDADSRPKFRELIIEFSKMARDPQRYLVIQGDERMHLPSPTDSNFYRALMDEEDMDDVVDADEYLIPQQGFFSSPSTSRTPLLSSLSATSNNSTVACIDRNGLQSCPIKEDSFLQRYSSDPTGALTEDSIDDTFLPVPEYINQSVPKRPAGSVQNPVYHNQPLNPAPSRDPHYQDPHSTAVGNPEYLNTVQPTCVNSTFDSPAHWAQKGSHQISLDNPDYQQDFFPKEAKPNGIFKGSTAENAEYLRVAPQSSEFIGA

With `COc1cc(N2CCC(N3CCN(C)CC3)CC2)c(C)cc1Nc1ncc(Cl)c(Nc2ccc3nccnc3c2NS(C)(=O)=O)n1` [Example A1, N-(6-((5-chloro-2-((2-methoxy-5-methyl-4-(4-(4-methylpiperazin-1-yl)piperidin-1-yl)phenyl)amino)pyrimidin-4-yl)amino)quinoxalin-5-yl)methanesulfonamide], the GI50 amounted to 312 nM in test [1]; 33 nM in test [2]; 17 nM in test [3]; 7 nM in test [4]; 17 nM in test [5]; 6 nM in test [6].

On to `CCc1cc(Nc2ncc(Cl)c(Nc3ccc4nccnc4c3NS(C)(=O)=O)n2)c(OC)cc1N1CCC(N2CCN(C)CC2)CC1` [Example A2, N-(6-((5-chloro-2-((5-ethyl-2-methoxy-4-(4-(4-methylpiperazin-1-yl)piperidin-1-yl)phenyl)amino)pyrimidin-4-yl)amino)quinoxalin-5-yl)methanesulfonamide], for which the GI50 is 381 nM in test [1]; 26 nM in test [2]; 9 nM in test [3]; 4 nM in test [4]; 12 nM in test [5]; 4 nM in test [6].

For the molecule `COc1cc(N2CCC(N3CCN(C)CC3)CC2)c(C)cc1Nc1ncc(Br)c(Nc2ccc3nccnc3c2NS(C)(=O)=O)n1` [Example A4, N-(6-((5-bromo-2-((2-methoxy-5-methyl-4-(4-(4-methylpiperazin-1-yl)piperidin-1-yl)phenyl)amino)pyrimidin-4-yl)amino)quinoxalin-5-yl)methanesulfonamide], the GI50 in test [1] came out at 249 nM; in test [2] it was 34 nM; in test [3], 6 nM; in test [4], 3 nM; in test [5] it was 12 nM; in test [6], 1 nM.

Consider `CCCc1cc(Nc2ncc(Cl)c(Nc3ccc4nccnc4c3NS(C)(=O)=O)n2)c(OC)cc1N1CCC(N2CCN(C)CC2)CC1` [Example A6, N-(6-((5-chloro-2-((2-methoxy-4-(4-(4-methylpiperazin-1-yl)piperidin-1-yl)-5-propylphenyl)amino)pyrimidin-4-yl)amino)quinoxalin-5-yl)methanesulfonamide], for which the GI50 in test [1] was found to be 498 nM; in test [2], 29 nM; in test [3], 12 nM; in test [4] it was 5 nM; in test [5] it was 14 nM; in test [6] it was 4 nM.

Regarding `CCc1cc(Nc2ncc(Br)c(Nc3ccc4nccnc4c3N(C)S(C)(=O)=O)n2)c(OC)cc1N1CCC(N2CCN(C)CC2)CC1` [Example A10, N-(6-((5-bromo-2-((5-ethyl-2-methoxy-4-(4-(4-methylpiperazin-1-yl)piperidin-1-yl)phenyl)amino)pyrimidin-4-yl)amino)quinoxalin-5-yl)-N-methylmethane sulfonamide], the GI50 was found to be 400 nM in test [1]; 37 nM in test [2]; 9 nM in test [3]; 5 nM in test [4]; 16 nM in test [5]; 4 nM in test [6].

For the molecule `COc1cc(N2CCC(N3CCN(C)C4(CC4)C3)CC2)ccc1Nc1ncc(Cl)c(Nc2ccc3nccnc3c2NS(C)(=O)=O)n1` [Example A15, N-(6-((5-chloro-2-((2-methoxy-4-(4-(4-methyl-4,7-diazaspiro[2.5]octan-7-yl)piperidin-1-yl)phenyl)amino)pyrimidin-4-yl)amino)quinoxalin-5-yl)methanesulfonamide], the GI50 in test [1] stood at 811 nM; in test [2], 423 nM; in test [3], 473 nM; in test [4] it was 156 nM; in test [5], 295 nM; in test [6], 211 nM.

In the case of `COc1cc(N2CCC(N3CCN(C)CC3)CC2)c(C)cc1Nc1ncc(Br)c(Nc2ccc3nccnc3c2NS(=O)(=O)C2CC2)n1` [Example A19, N-(6-((5-bromo-2-((2-methoxy-5-methyl-4-(4-(4-methylpiperazin-1-yl)piperidin-1-yl)phenyl)amino)pyrimidin-4-yl)amino)quinoxalin-5-yl)cyclopropanesulfonamide], the GI50 turned out to be 395 nM in test [1]; 80 nM in test [2]; 43 nM in test [3]; 6 nM in test [4]; 66 nM in test [5]; 24 nM in test [6].

For the molecule `CCc1cc(Nc2ncc(Cl)c(Nc3ccc4nccnc4c3N(C)S(C)(=O)=O)n2)c(OC)cc1N1CCC(N2CCN(C)CC2)CC1` [Example A38, N-(6-((5-chloro-2-((5-ethyl-2-methoxy-4-(4-(4-methylpiperazin-1-yl)piperidin-1-yl)phenyl)amino)pyrimidin-4-yl)amino)quinoxalin-5-yl)-N-methylmethanesulfonamide], the GI50 in test [1] amounted to 347 nM; in test [2], 18 nM; in test [3], 33 nM; in test [4], 5 nM; in test [6] it was 5 nM.

For `CCc1cc(Nc2ncc(Cl)c(Nc3ccc4nccnc4c3NS(C)(=O)=O)n2)c(OC)cc1N1CCC(N(C)C)CC1` [Example B5, N-(6-((5-chloro-2-((4-(4-(dimethylamino)piperidin-1-yl)-5-ethyl-2-methoxyphenyl)amino)pyrimidin-4-yl)amino)quinoxalin-5-yl)methanesulfonamide], the GI50 came to 1860 nM in test [1]; 223 nM in test [2]; 36 nM in test [3]; 30 nM in test [5]; 14 nM in test [6].

Regarding `COc1cc(N2CCC(N(C)C)CC2)c(C)cc1Nc1ncc(C(F)(F)F)c(Nc2ccc3nccnc3c2NS(C)(=O)=O)n1` [Example B9, N-(6-((2-((4-(4-(dimethylamino)piperidin-1-yl)-2-methoxy-5-methylphenyl)amino)-5-(trifluoromethyl)pyrimidin-4-yl)amino)quinoxalin-5-yl) methane sulfonamide], the GI50 in test [1], in test [2], in test [3], in test [5] and in test [6] was over 2000 nM throughout.

With `COc1cc(N2CCOCC2)c(C)cc1Nc1ncc(Br)c(Nc2ccc3nccnc3c2NS(C)(=O)=O)n1` [Example B10, N-(6-((5-bromo-2-((2-methoxy-5-methyl-4-morpholinophenyl)amino)pyrimidin-4-yl)amino)quinoxalin-5-yl)methanesulfonamide], the GI50 in test [1] amounted to 858 nM; in test [2], 678 nM; in test [3] it was 584 nM; in test [5] it was 537 nM; in test [6], 252 nM.

Consider `COc1cc(C2CCNCC2)ccc1Nc1ncc(F)c(Nc2ccc3nccnc3c2NS(C)(=O)=O)n1` [Example B17, N-(6-((5-fluoro-2-((2-methoxy-4-(piperidin-4-yl)phenyl)amino)pyrimidin-4-yl)amino)quinoxalin-5-yl)methanesulfonamide], for which the GI50 was over 2000 nM in test [1]; over 2000 nM in test [2]; over 2000 nM in test [3]; 1250 nM in test [5]; over 2000 nM in test [6].

Turning to `COc1cc(N2CC3(CNC3)C2)ccc1Nc1ncc(Cl)c(Nc2ccc3nccnc3c2NS(C)(=O)=O)n1` [Example D7, N-(6-((5-chloro-2-((2-methoxy-4-(2,6-diazaspiro[3.3]heptan-2-yl)phenyl)amino)pyrimidin-4-yl)amino)quinoxalin-5-yl)methanesulfonamide], the GI50 in test [1], in test [2], in test [3], in test [4] and in test [6] was over 2000 nM in each case.
